In patent US6462055B2, “Alpha-methylbenzyl-containing thiourea inhibitors of herpes viruses containing a phenylenediamine group” (Wyeth, priority 1998, dated 2002):
In brackets after ≈: the same amount, converted by molar mass.

Key:
[1] = system: HCMV recombinant mutant virus (RV145); assay: microbe, parasite or virus in culture; format: cell-based, human cytomegalovirus; conditions: for IC50: Human betaherpesvirus 5, read-out: IC50 ug/ml HCMV, HCMV
Excerpt: Microtiter plate assay. Ninety-six well plate cultures of human foreskin fibroblasts are infected in the presence of inhibitor compound with a HCMV recombinant mutant virus whose genome contains the prokaryotic beta-glucuronidase gene (Jefferson, R. A., S. M. Burgess, and D. Hirsh. 1986. Beta-glucuronidase from Escherichia coli as a gene fusion marker. Proc. Natl. Acad. Sci. USA 83:8447-8451) whose expression is controlled by a viral promoter. An example of such a virus is RV145 (Jones, T. R., V. P. Muzithras, and Y. Gluzman. 1991. Replacement mutagenesis of the human cytomegalovirus genome: US10 and US11 gene products are nonessential. J. Virol. 65:5860-5872). Since it is under the control of a viral promoter, beta-glucuronidase expression is an indirect indicator of growth and replication of HCMV in this assay. At 96 hours post-infection, the infected cell lysates are prepared (using 50 mM sodium phosphate [pH7.0]containing 0.1% Triton X-100 and 0.1% sarkosyl) and assayed for beta-glucuronidase activity using a substrate for the enzyme which when cleaved yields either a product which can be measured […] in a spectrophotometer or fluorescently in a microfluorimeter. Examples of such substrates are p-nitrophenyl-beta-D-glucuronide and methylumbelliferylglucuronide, respectively. The presence of an antiviral compound is indicated by the reduced expression of the HCMV genome resident beta-glucuronidase gene, compared to the absence of inhibitor. […] Data from this assay generated using varying amounts of inhibitor compound is also used to estimate the IC50 of an inhibitor compound.

[2] = system: HSV-1; assay: HSV Antiviral (ELISA) Assay in Vero cells; format: cell-based, herpes simplex virus type 1; conditions: HSV-1, Vero cells; for IC50: Human alphaherpesvirus 1, read-out: IC50 (ug/ml) HSV
Summary of the method: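 Viral replication was quantified by cell-fixed ELISA for HSV glycoprotein D, using a β-galactosidase reporter and fluorogenic umbelliferyl substrate, about 24 h after HSV-1 infection (MOI 0.006) of Vero cells. Compounds, at several concentrations, were added 30 min pre-infection. IC50 was derived from fluorescence relative to the compound-free signal.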

[3] = system: VZV strain Ellen; assay: VZV Antiviral (ELISA) Assay in human foreskin fibroblast cells; format: cell-based, varicella-zoster virus
Summary of the method: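 Cell-based ELISA: infected/uninfected HFF mix (VZV Ellen, MOI <0.1) exposed to compound in DMEM/2% FBS for 3 days at 37° C. Anti-gpII monoclonal plus β-galactosidase-linked secondary, detected as 4-methylumbelliferone fluorescence; IC50 derived by comparing fluorescence with versus without compound.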

Row | Compound | IC50 ug/ml HCMV [1] | IC50 (ug/ml) HSV [2] | IC50 (ug/ml) VZV [3] | % inhibition 10 ug/ml VZV [3] | IC50 [1] | IC50 [2] | inhibition at 10 µg/mL ([3]; Human alphaherpesvirus 3, Fibroblast, read-out: % inhibition 10 ug/ml VZV, 10 ug/ml) | IC50 ([3]; Human alphaherpesvirus 3, Fibroblast, read-out: IC50 (ug/ml) VZV)
1 | COc1cc(OC)c(NC(=S)Nc2ccc(NC(=O)c3ccccc3C)cc2)cc1Cl [Example 114] | 5 µg/mL (≈ 11 µM) | 0.3 µg/mL (≈ 0.658 µM) | >10 µg/mL | 17% | – | – | – | –
2 | COc1cc(OC)c(NC(=S)Nc2ccc(NC(=O)c3ccccc3OC(C)=O)cc2)cc1Cl [Example 115] | 8 µg/mL (≈ 16 µM) | 4 µg/mL (≈ 8 µM) | 4 µg/mL (≈ 8 µM) | 98% | – | – | – | –
3 | COc1cc(OC)c(NC(=S)Nc2ccc(NC(=O)c3ccc(F)cc3)cc2)cc1Cl [Example 116] | 3 µg/mL (≈ 6.52 µM) | 2 µg/mL (≈ 4.35 µM) | >10 µg/mL | 0% | – | – | – | –
4 | COc1cc(OC)c(NC(=S)Nc2ccc(NC(=O)c3cccc(F)c3)cc2)cc1Cl [Example 117] | 3 µg/mL (≈ 6.52 µM) | 0.3 µg/mL (≈ 0.652 µM) | >10 µg/mL | 15% | – | – | – | –
5 | COc1cc(OC)c(NC(=S)Nc2ccc(NC(=O)c3ccccc3F)cc2)cc1Cl [Example 118] | 3 µg/mL (≈ 6.52 µM) | 0.15 µg/mL (≈ 0.326 µM) | >10 µg/mL | – | – | – | – | –
6 | COc1cc(OC)c(NC(=S)Nc2ccc(NC(=O)c3ccccc3OC)cc2)cc1Cl [Example 119] | > 10 µg/mL | 0.5 µg/mL (≈ 1.06 µM) | >10 µg/mL | 1% | – | – | – | –
7 | COc1cccc(C(=O)Nc2ccc(NC(=S)Nc3cc(Cl)c(OC)cc3OC)cc2)c1 [Example 120] | 5 µg/mL (≈ 10.6 µM) | 0.8 µg/mL (≈ 1.7 µM) | >10 µg/mL | 25% | – | – | – | –
8 | COc1ccc(C(=O)Nc2ccc(NC(=S)Nc3cc(Cl)c(OC)cc3OC)cc2)cc1 [Example 121] | 6 µg/mL (≈ 12.7 µM) | 0.3 µg/mL (≈ 0.636 µM) | >10 µg/mL | 0% | – | – | – | –
9 | COc1cc(OC)c(NC(=S)Nc2ccc(NC(=O)c3ccccc3)cc2)cc1Cl [Example 122] | 4 µg/mL (≈ 9.05 µM) | 0.3 µg/mL (≈ 0.679 µM) | >10 µg/mL | 13% | – | – | – | –
10 | COc1c(Cl)cc(NC(=S)Nc2ccc(NC(=O)c3ccc(F)cc3)cc2)cc1Cl [Example 133] | 0.6 µg/mL (≈ 1.29 µM) | 7 µg/mL (≈ 15.1 µM) | >10 µg/mL | 36% | – | – | – | –
11 | COc1cc(OC)c(NC(=S)Nc2ccc(NC(=O)c3cccc(NC(C)=O)c3)cc2)cc1Cl [Example 134] | 4 µg/mL (≈ 8.02 µM) | > 10 µg/mL | >10 µg/mL | 50% | – | – | – | –
12 | COc1cc(OC)c(NC(=S)Nc2ccc(NC(=O)c3cccc([N+](=O)[O-])c3)cc2)cc1Cl [Example 135] | 5 µg/mL (≈ 10.3 µM) | 1.5 µg/mL (≈ 3.08 µM) | >10 µg/mL | 0% | – | – | – | –
13 | COc1cc(OC)c(NC(=S)Nc2ccc(NC(=O)c3ccccc3C(F)(F)F)cc2)cc1Cl [Example 138] | 8 µg/mL (≈ 15.7 µM) | 1 µg/mL (≈ 1.96 µM) | >10 µg/mL | 57% | – | – | – | –
14 | COc1cc(OC)c(NC(=S)Nc2ccc(NC(=O)c3ccccc3O)cc2)cc1Cl [Example 139] | 6 µg/mL (≈ 13.1 µM) | 6 µg/mL (≈ 13.1 µM) | 4 µg/mL (≈ 8.73 µM) | 95% | – | – | – | –
15 | COc1cc(OC)c(NC(=S)Nc2ccc(NC(=O)c3c(F)cccc3F)cc2)cc1Cl [Example 140] | 4 µg/mL (≈ 8.37 µM) | 0.15 µg/mL (≈ 0.314 µM) | 10 µg/mL (≈ 20.9 µM) | 65% | – | – | – | –
16 | COc1cc(OC)c(NC(=S)Nc2ccc(NC(=O)c3ccccc3Cl)cc2)cc1Cl [Example 141] | 6 µg/mL (≈ 12.6 µM) | 0.25 µg/mL (≈ 0.525 µM) | >10 µg/mL | 40% | – | – | – | –
17 | COc1cc(OC)c(NC(=S)Nc2ccc(NC(=O)c3ccccc3Br)cc2)cc1Cl [Example 142] | – | – | – | – | 10 µg/mL (≈ 19.2 µM) | 0.4 µg/mL (≈ 0.768 µM) | 51% | > 15 µg/mL

Row | Compound | IC50 ug/ml HCMV [1] | IC50 (ug/ml) HSV [2] | IC50 (ug/ml) VZV [3] | % inhibition 10 ug/ml VZV [3] | IC50 [1] | IC50 [2] | inhibition at 10 µg/mL ([3]; Human alphaherpesvirus 3, Fibroblast, read-out: % inhibition 10 ug/ml VZV, 10 ug/ml) | IC50 ([3]; Human alphaherpesvirus 3, Fibroblast, read-out: IC50 (ug/ml) VZV)
18 | COc1cc(OC)c(NC(=S)Nc2ccc(NC(=O)c3ccccc3[N+](=O)[O-])cc2)cc1Cl [Example 143] | > 10 µg/mL | 1 µg/mL (≈ 2.05 µM) | >15 µg/mL | 68% | – | – | – | –
19 | COc1cc(OC)c(NC(=S)Nc2ccc(NC(=O)c3cccc4ccccc34)cc2)cc1Cl [Example 157] | 8 µg/mL (≈ 16.3 µM) | 0.9 µg/mL (≈ 1.83 µM) | >10 µg/mL | 32% | – | – | – | –
20 | CCOC(=O)Nc1cccc(C(=O)Nc2ccc(NC(=S)Nc3cc(Cl)c(OC)cc3OC)cc2)c1 [Example 180] | 1.5 µg/mL (≈ 2.84 µM) | 1.3 µg/mL (≈ 2.46 µM) | >10 µg/mL | 36% | – | – | – | –
21 | O=C(Nc1ccc(NC(=S)NCc2cccc(I)c2)cc1)c1ccccc1F [Example 661] | – | – | – | – | > 0.5 µg/mL | > 10 µg/mL | – | –
22 | O=C(Nc1ccc(NC(=S)NCc2cc(C(F)(F)F)ccc2F)cc1)c1ccccc1F [Example 669] | – | – | – | – | > 0.5 µg/mL | > 10 µg/mL | – | –
23 | O=C(Nc1ccc(NC(=S)NCc2ccc(F)c(F)c2)cc1)c1ccccc1F [Example 672] | – | – | – | – | > 0.5 µg/mL | > 10 µg/mL | – | –
24 | Cc1cc(CCNC(=S)Nc2ccc(NC(=O)c3ccccc3F)cc2)ccc1N(C)C [Example 673] | >0.5 µg/mL | 7 µg/mL (≈ 15.5 µM) | – | – | – | – | – | –
25 | O=C(Nc1ccc(NC(=S)NCc2ccc(F)c(Cl)c2)cc1)c1ccccc1F [Example 677] | >0.5 µg/mL | >10 µg/mL | – | – | – | – | – | –
26 | O=C(Nc1ccc(NC(=S)NCCSc2cccc(Br)c2)cc1)c1ccccc1F [Example 680] | >0.5 µg/mL | >10 µg/mL | – | – | – | – | – | –
27 | CC1CN(c2ccc(CNC(=S)Nc3ccc(NC(=O)c4ccccc4F)cc3)cc2C(F)(F)F)CCN1 (centres unmarked) [Example 687] | >0.5 µg/mL | 1.2 µg/mL (≈ 2.2 µM) | – | – | – | – | – | –
28 | O=C(Nc1ccc(NC(=S)NCCOc2ccc(Br)cc2)cc1)c1ccccc1F [Example 695] | >3 µg/mL | >10 µg/mL | – | – | – | – | – | –
29 | O=C(Nc1ccc(NC(=S)NCCOc2ccc(I)cc2)cc1)c1ccccc1F [Example 696] | – | – | – | – | > 3 µg/mL | 10 µg/mL (≈ 18.7 µM) | – | –
30 | O=C(Nc1ccc(NC(=S)NCCc2ccc(Cl)c(Cl)c2)cc1)c1ccccc1F [Example 719] | >0.5 µg/mL | >10 µg/mL | – | – | – | – | – | –
31 | COc1ccccc1C(=O)Nc1ccc(NC(=S)NC(C)c2ccc(F)cc2)cc1 (centres unmarked) [Example 752] | >0.5 µg/mL | >10 µg/mL | – | – | – | – | – | –
32 | CCC(NC(=S)Nc1ccc(NC(=O)c2ccccc2F)cc1)c1ccc(F)cc1 (centres unmarked) [Example 771] | 0.4 µg/mL (≈ 0.94 µM) | >10 µg/mL | – | – | – | – | – | –
33 | O=C(Nc1ccc(NC(=S)NC(c2ccccc2)c2ccc(F)cc2)cc1)c1ccccc1F (centres unmarked) [Example 772] | 0.35 µg/mL (≈ 0.739 µM) | >10 µg/mL | – | – | – | – | – | –
34 | O=C(Nc1ccc(NC(=S)Nc2ccc(Cl)cc2)cc1)c1ccccc1F [Example 946, N-{4-[3-(4-Chloro-phenyl)-thioureido]-phenyl}-2-fluoro-benzamide] | – | – | – | – | > 10 µg/mL | > 10 µg/mL | – | –
